For assay [1], the target named is T1, Alpha-1D adrenergic receptor (Homo sapiens, UniProt P25100). Further: in other assays of this panel Not Active means under 50% inhibition at 10 µM.
T1 sequence (P25100 whole entry): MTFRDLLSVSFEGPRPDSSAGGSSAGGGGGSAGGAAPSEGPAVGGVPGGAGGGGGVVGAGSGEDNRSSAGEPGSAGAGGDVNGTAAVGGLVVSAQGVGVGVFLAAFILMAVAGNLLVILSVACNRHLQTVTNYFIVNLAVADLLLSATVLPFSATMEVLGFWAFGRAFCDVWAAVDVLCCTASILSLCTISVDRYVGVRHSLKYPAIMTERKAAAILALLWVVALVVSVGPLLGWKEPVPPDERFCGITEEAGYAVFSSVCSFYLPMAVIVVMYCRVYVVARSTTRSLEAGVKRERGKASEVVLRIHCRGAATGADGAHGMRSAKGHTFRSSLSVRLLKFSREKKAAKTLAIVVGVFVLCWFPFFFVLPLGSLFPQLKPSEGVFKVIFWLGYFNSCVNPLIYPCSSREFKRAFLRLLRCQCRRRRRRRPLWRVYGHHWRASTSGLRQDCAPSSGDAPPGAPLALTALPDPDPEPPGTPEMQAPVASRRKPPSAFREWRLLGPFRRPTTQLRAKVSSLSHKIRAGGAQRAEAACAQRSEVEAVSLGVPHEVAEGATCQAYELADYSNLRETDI
It counts as cell membranes, HEK293, Membrane. The conditions noted are these: hek293.

The target in assay [2] is Prostaglandin G/H synthase 1 (Homo sapiens, UniProt P23219). Kind of assay: biochemical. Type of assay: tissue-based, Platelet.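 Further: inhibition of COX-1 enzyme activity, with arachidonic acid supplied as substrate; in other assays of this panel Not Active means under 50% inhibition at 10 µM.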
Assay [3] can be described thus: DRUGMATRIX: GABAA, Muscimol, Central radioligand binding (ligand: [3H] Muscimol). Type of assay: cell membranes, Rattus norvegicus, Wistar, Brain, Membrane. As to conditions: Not Active = under 50% inhibition at 10 µM.
The target of assay [4] is Glycine receptor (Rattus norvegicus, UniProt P22771+P24524+P07727+P20781). It counts as cell membranes, Wistar, Spinal cord, Membrane. Further: in other assays of this panel Not Active means under 50% inhibition at 10 µM.
The target of assay [5] is T2, Muscarinic acetylcholine receptor M4 (Homo sapiens, UniProt P08173). Further: in other assays of this panel Not Active means under 50% inhibition at 10 µM.
T2 sequence (P08173 whole entry): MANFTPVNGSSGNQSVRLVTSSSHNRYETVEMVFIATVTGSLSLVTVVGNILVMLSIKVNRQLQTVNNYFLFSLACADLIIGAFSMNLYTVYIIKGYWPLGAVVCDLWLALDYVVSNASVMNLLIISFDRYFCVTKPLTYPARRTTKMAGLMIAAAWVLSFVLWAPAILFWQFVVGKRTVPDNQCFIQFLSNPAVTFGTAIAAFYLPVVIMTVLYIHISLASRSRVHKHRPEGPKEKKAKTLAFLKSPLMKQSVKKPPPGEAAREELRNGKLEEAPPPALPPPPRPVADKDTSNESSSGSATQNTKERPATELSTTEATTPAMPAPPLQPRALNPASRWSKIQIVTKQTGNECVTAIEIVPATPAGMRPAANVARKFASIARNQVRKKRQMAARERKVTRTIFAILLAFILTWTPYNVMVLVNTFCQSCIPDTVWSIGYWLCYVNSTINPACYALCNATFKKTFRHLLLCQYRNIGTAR
Type of assay: cell membranes, CHO-K1, Membrane.

The target in assay [6] is Matrix metalloproteinase-9 (Homo sapiens, UniProt P14780). The assay is described as follows: biochemical. Type of assay: cell-based.
Chain of Matrix metalloproteinase-9 (P14780 whole entry): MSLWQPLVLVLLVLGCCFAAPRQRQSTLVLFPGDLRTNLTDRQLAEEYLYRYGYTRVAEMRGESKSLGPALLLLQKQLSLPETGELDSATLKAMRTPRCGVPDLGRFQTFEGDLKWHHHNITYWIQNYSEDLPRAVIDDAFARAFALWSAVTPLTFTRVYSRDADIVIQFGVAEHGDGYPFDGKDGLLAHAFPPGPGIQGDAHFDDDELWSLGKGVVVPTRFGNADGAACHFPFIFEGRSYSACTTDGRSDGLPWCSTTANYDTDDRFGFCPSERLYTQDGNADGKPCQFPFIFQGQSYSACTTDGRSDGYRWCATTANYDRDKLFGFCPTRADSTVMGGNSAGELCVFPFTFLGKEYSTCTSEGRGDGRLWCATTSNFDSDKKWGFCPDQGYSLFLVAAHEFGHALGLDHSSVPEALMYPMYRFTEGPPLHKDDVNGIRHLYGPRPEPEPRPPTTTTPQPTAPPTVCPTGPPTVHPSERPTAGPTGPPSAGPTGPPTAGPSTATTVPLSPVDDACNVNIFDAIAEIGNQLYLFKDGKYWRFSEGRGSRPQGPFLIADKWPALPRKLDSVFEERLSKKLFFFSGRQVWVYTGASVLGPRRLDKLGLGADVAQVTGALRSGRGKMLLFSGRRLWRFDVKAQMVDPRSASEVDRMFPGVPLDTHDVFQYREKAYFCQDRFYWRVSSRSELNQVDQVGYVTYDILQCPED

Chain of Prostaglandin G/H synthase 1 (P23219 whole entry): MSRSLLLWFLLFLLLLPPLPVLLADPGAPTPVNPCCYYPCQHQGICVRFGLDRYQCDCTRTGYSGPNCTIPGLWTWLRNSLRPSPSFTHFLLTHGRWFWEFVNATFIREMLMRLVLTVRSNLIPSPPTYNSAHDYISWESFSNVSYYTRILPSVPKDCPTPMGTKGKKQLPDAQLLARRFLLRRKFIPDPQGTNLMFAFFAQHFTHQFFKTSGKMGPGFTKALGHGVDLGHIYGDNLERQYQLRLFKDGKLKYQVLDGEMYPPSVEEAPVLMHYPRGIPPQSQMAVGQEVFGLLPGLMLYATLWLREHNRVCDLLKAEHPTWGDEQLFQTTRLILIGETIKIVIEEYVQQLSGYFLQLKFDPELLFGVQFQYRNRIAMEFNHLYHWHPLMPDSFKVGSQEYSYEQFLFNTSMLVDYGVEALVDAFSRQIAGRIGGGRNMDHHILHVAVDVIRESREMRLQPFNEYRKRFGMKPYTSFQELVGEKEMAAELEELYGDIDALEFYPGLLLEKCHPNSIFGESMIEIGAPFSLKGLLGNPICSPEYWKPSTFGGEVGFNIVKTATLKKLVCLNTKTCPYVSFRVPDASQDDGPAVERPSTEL

As for `C[C@@H]1CC[C@@]2(OC1)O[C@H]1[C@@H](O)[C@H]3[C@@H]4CC[C@H]5C[C@@H](O[C@@H]6O[C@H](CO)[C@H](O[C@@H]7O[C@H](CO)C(O)[C@H](O[C@@H]8OC[C@@H](O)[C@H](O)[C@H]8O)[C@H]7O[C@@H]7O[C@H](CO)[C@H](O)[C@H](O[C@@H]8O[C@H](CO)[C@@H](O)[C@H](O)[C@H]8O)[C@H]7O)[C@H](O)[C@H]6O)[C@H](O)C[C@]5(C)[C@H]4CC[C@]3(C)[C@H]1[C@@H]2C` (stereo partly drawn) [DIGITONIN], the 50% inhibitory concentration (IC50) result in assay [1], in assay [2] (platelet), in assay [3], in assay [4], in assay [5] (cho-k1) and in assay [6] was “Not Active” throughout. Besides, in assay [3], the Ki – broadly, a measure of affinity in units of concentration, obtained from inhibition or displacement – is “Not Active”.
For `OC(CCCN1CCCCC1)(c1ccccc1)c1ccccc1` [DIPHENIDOL], the concentration for half-maximal inhibition (IC50) (in general, the concentration that gives 50% inhibition) in assay [1] was “Not Active”; in assay [2] (platelet), “Not Active”; in assay [3], “Not Active”; in assay [4] it was “Not Active”; in assay [5] (read-out: IC50), 271 nM; in assay [6], “Not Active”. Further, the figures for the Ki entry in assay [3] and in assay [5] (read-out: Ki) were “Not Active” and 38 nM, respectively.
Consider `C[C@H]1O[C@@H](n2cc(F)c(=O)[nH]c2=O)[C@H](O)[C@@H]1O` [DOXIFLURIDINE], for which the IC50 entry in assay [1], in assay [2] (platelet), in assay [3], in assay [4], in assay [5] (cho-k1) and in assay [6] was “Not Active” each time. Also, in assay [3], the inhibition constant (Ki) entry is “Not Active”.
Regarding `Cn1c(=O)c2c(ncn2CC(O)CO)n(C)c1=O` (stereo not drawn) [DYPHYLLINE], the half-inhibitory concentration (IC50) result in assay [1], in assay [2] (platelet), in assay [3], in assay [4], in assay [5] (cho-k1) and in assay [6] was “Not Active” in each case. In assay [3], the Ki entry was “Not Active”.
In the case of `CC[C@H]1CN2CCc3cc(OC)c(OC)cc3[C@@H]2C[C@@H]1C[C@H]1NCCc2cc(OC)c(OC)cc21` [EMETINE], the IC50 entry in assay [1], in assay [2] (platelet), in assay [3], in assay [4], in assay [5] (cho-k1) and in assay [6] was “Not Active” throughout. The Ki result in assay [3] is given as “Not Active”.
Turning to `C[C@@H](CO)NC(=O)[C@@H]1C=C2c3cccc4[nH]cc(c34)C[C@H]2N(C)C1` [ERGONOVINE], the IC50 result in assay [1], in assay [2] (platelet), in assay [3], in assay [4], in assay [5] (cho-k1) and in assay [6] was “Not Active” in each case. Moreover, in assay [3], the Ki entry is recorded as “Not Active”.
As to `COC(=O)CCc1ccc(OCC(O)CNC(C)C)cc1` (stereo not drawn) [ESMOLOL], the IC50 result in assay [1], in assay [2] (platelet), in assay [3], in assay [4], in assay [5] (cho-k1) and in assay [6] was “Not Active” throughout. For the same compound, the inhibitory constant (Ki) result in assay [3] is on record as “Not Active”.
As for `CCC1(C)CC(=O)NC1=O` (stereo not drawn) [ETHOSUXIMIDE], the IC50 result in assay [1], in assay [2] (platelet), in assay [3], in assay [4], in assay [5] (cho-k1) and in assay [6] was “Not Active” in each case. Besides, the Ki entry in assay [3] is on record as “Not Active”.
In the case of `C#C[C@]1(OC(C)=O)CC[C@H]2[C@@H]3CCC4=C[C@@H](OC(C)=O)CC[C@@H]4[C@H]3CC[C@@]21C` [ETHYNODIOL DIACETATE], the concentration for half-maximal inhibition (IC50) entry in assay [1], in assay [2] (platelet), in assay [3], in assay [4], in assay [5] (cho-k1) and in assay [6] was “Not Active” throughout. For the same compound, the inhibitory constant (Ki) entry in assay [3] was “Not Active”.
Take `COc1cc([C@@H]2c3cc4c(cc3[C@@H](O[C@@H]3O[C@@H]5CO[C@@H](C)O[C@H]5[C@H](O)[C@H]3O)[C@H]3COC(=O)[C@H]23)OCO4)cc(OC)c1O` [ETOPOSIDE]: the IC50 entry in assay [1], in assay [2] (platelet), in assay [3], in assay [4], in assay [5] (cho-k1) and in assay [6] was “Not Active” in each case. Moreover, the inhibitory constant (Ki) entry in assay [3] is on record as “Not Active”.
With `C=CCc1ccc(O)c(OC)c1` [EUGENOL], the IC50 entry in assay [1], in assay [2] (platelet), in assay [3], in assay [4], in assay [5] (cho-k1) and in assay [6] was “Not Active” throughout. Further, the Ki entry in assay [3] is given as “Not Active”.
As for `CC(C(=O)O)c1cccc(Oc2ccccc2)c1` (stereo not drawn) [FENOPROFEN], the concentration for half-maximal inhibition (IC50) entry is “Not Active” in assay [1]; 145 nM in assay [2] (read-out: IC50); “Not Active” in assay [3]; “Not Active” in assay [4]; “Not Active” in assay [5] (cho-k1); “Not Active” in assay [6]. The Ki result in assay [3] is “Not Active”.
Turning to `CC(C)(C)NC(=O)[C@H]1CC[C@H]2[C@@H]3CC[C@H]4NC(=O)C=C[C@]4(C)[C@H]3CC[C@]12C` [FINASTERIDE], the IC50 result in assay [1], in assay [2] (platelet), in assay [3], in assay [4], in assay [5] (cho-k1) and in assay [6] was “Not Active” each time. In assay [3], the Ki result is on record as “Not Active”.
Turning to `COc1ccc2c3c1O[C@H]1C[C@@H](O)C=C[C@@]31CCN(C)C2` [GALANTAMINE], the IC50 result in assay [1], in assay [2] (platelet), in assay [3], in assay [4], in assay [5] (cho-k1) and in assay [6] was “Not Active” each time. In assay [3], the Ki entry was “Not Active”.
Turning to `Nc1ccn([C@@H]2O[C@H](CO)[C@@H](O)C2(F)F)c(=O)n1` [GEMCITABINE], the 50% inhibitory concentration (IC50) entry in assay [1], in assay [2] (platelet), in assay [3], in assay [4], in assay [5] (cho-k1) and in assay [6] was “Not Active” in each case. Also, the Ki result in assay [3] was “Not Active”.
With `CC(C)=CCC/C(C)=C/CO` [GERANIOL], the half-inhibitory concentration (IC50) entry in assay [1], in assay [2] (platelet), in assay [3], in assay [4], in assay [5] (cho-k1) and in assay [6] was “Not Active” each time. Further, the Ki result in assay [3] was “Not Active”.
Take `N=C(N)NC(=O)Cc1c(Cl)cccc1Cl` [GUANFACINE]: the IC50 result in assay [1], in assay [2] (platelet), in assay [3], in assay [4], in assay [5] (cho-k1) and in assay [6] was “Not Active” in each case. For the same compound, the Ki entry in assay [3] is given as “Not Active”.
For `Oc1c(Cl)cc(Cl)c(Cl)c1Cc1c(O)c(Cl)cc(Cl)c1Cl` [HEXACHLOROPHENE], the IC50 result in assay [1], in assay [2] (platelet), in assay [3], in assay [4], in assay [5] (cho-k1) and in assay [6] was “Not Active” in each case. The inhibitory constant (Ki) entry in assay [3] is “Not Active”.
`NNc1nncc2ccccc12` [HYDRALAZINE]: the IC50 result in assay [1], in assay [2] (platelet), in assay [3], in assay [4], in assay [5] (cho-k1) and in assay [6] was “Not Active” throughout. In addition, the Ki entry in assay [3] was “Not Active”.
Regarding `CC(=O)[C@@]1(O)CC[C@H]2[C@@H]3CCC4=CC(=O)CC[C@]4(C)[C@H]3CC[C@@]21C` [HYDROXYPROGESTERONE], the IC50 result in assay [1], in assay [2] (platelet), in assay [3], in assay [4], in assay [5] (cho-k1) and in assay [6] was “Not Active” throughout. For the same compound, in assay [3], the Ki entry is reported as “Not Active”.
In the case of `COC1=C(OC)C(=O)C(CCCCCCCCCCO)=C(C)C1=O` [IDEBENONE], the IC50 result in assay [1], in assay [2] (platelet), in assay [3], in assay [4], in assay [5] (cho-k1) and in assay [6] was “Not Active” each time. Moreover, the inhibition constant Ki entry in assay [3] is given as “Not Active”.

The values are drawn from ChEMBL document CHEMBL1909046, “DrugMatrix in vitro pharmacology data”.
